Tests used:
Format in all cases: cell-based
MYB mRNA [1] = assay: Splicing RT-qPCR assay, canonical (CJ) and alternative (AJ) junction mRNA, K562 cells; conditions: Homo sapiens, K562.3 cells, 24 hours; for AC50: read-out: MYB AJ (AC50, increase in AJ mRNA); for IC50: read-out: MYB CJ (IC50, decrease in CJ mRNA)
How it was run: (§1)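 Plate K562 cells, add compound (top 10 uM final, DMSO ≤0.25%) and incubate 24 h. Lyse, run one-step RT-qPCR for CJ and AJ, normalize to GAPDH or GUSB, then to DMSO, and express as % response.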

HTT mRNA [2] = assay: as above; conditions: Homo sapiens, K562.3 cells, 24 hours; for AC50: read-out: HTT AJ (AC50, increase in AJ mRNA); for IC50: read-out: HTT CJ (IC50, decrease in CJ mRNA)
How it was run: as §1

HTT mRNA [3] = assay: Splicing RT-qPCR assay (THP), Table 2A; conditions: Table 2A (THP); for AC50: AJ mRNA increase, read-out: HTT AJ (increase in alternative junction mRNA, AC50); for IC50: CJ mRNA decrease, read-out: HTT CJ (decrease in canonical junction mRNA, IC50)
MYB mRNA [4] = assay: Splicing RT-qPCR assay (THP), Table 2A; conditions: Table 2A (THP); for AC50: AJ mRNA increase, read-out: MYB AJ (increase in alternative junction mRNA, AC50); for IC50: CJ mRNA decrease, read-out: MYB CJ (decrease in canonical junction mRNA, IC50)

Row | IC50 (MYB mRNA [1]) | IC50 (HTT mRNA [2]) | IC50 (HTT mRNA [3]) | IC50 (MYB mRNA [4]) | Structure (SMILES) | AC50 (MYB mRNA [1]) | AC50 (HTT mRNA [2]) | AC50 (HTT mRNA [3]) | AC50 (MYB mRNA [4])
1 | 0.1 to 1 µM | 1 to 10 µM | 1 to 10 µM | 0.1 to 1 µM | Cc1cn2cc(NC(=O)c3ccc(N4CCC(NC5CC5)CC4)c4cc(C)oc34)cc(F)c2n1 [Compound 185, 4-[4-(cyclopropyl-amino)-1-piperidyl]-N-(8-fluoro-2-methyl-imidazo[1,2-a]pyridin-6-yl)-2-methyl-benzofuran-7-carboxamide] | 0.1 to 1 µM | 1 to 10 µM | 1 to 10 µM | < 0.1 µM
2 | < 0.1 µM | 0.1 to 1 µM | 0.1 to 1 µM | < 0.1 µM | Cc1cn2cc(NC(=O)c3ccc(N4CCC(NC5CC5C)CC4)c4cn(C)nc34)cc(F)c2n1 (stereo not shown) [Compound 204, N-(8-fluoro-2-methyl-imidazo[1,2-a]pyridin-6-yl)-2-methyl-4-[4-[(2-methyl-cyclopropyl)amino]-1-piperidyl] indazole-7-carboxamide] | < 0.1 µM | 0.1 to 1 µM | 0.1 to 1 µM | < 0.1 µM

Source: patent publication US20260285853A1, “COMPOUNDS AND METHODS FOR MODULATING SPLICING” (REMIX THERAPEUTICS INC., priority 2023, published 2026)
